In ChEMBL document CHEMBL4261618, “Monodisperse oligoethylene glycols modified Propofol prodrugs” (Bioorg Med Chem Lett, 2018):
pEC50: −log10 of the molar value. ≈ marks a conversion by molar mass, not a printed value.

Key:
[1] = Cytotoxicity against human A549 cells assessed as cell viability at 0.05 mM after 24 hrs by MTT assay relative to control; assay type: cell-based; settings: read-out: Activity
[2] = Cytotoxicity against mouse L929 cells assessed as cell viability at 0.05 mM after 24 hrs by MTT assay relative to control; assay type: cell-based; settings: read-out: Activity
L929 [3] = experiment: Cytotoxicity against mouse L929 cells after 24 hrs by MTT assay; assay type: cell-based; settings: L929, 24 h
A549 [4] = experiment: Cytotoxicity against human A549 cells after 24 hrs by MTT assay; assay type: cell-based; settings: A549, 24 h
[5] = Solubility of the compound in pH 7.4 PBS buffer by ultraviolet spectroscopic method; assay type: physicochemical
Rattus norvegicus [6] = experiment: Toxicity in Sprague-Dawley rat assessed as death at 0.073 mmol/kg, iv for 10 secs; assay type: organism-based; settings: in vivo, 10 s
[7] = Critical micellar concentration of the compound in pyrene/acetone solution ultrasonicated for 30 mins followed by incubation in water bath at 60 degC for 40 mins and subsequent incubation at 40 degC for 12 hrs by fluorescence assay; assay type: physicochemical; settings: buffer
[8] = Prodrug activation in Sprague-Dawley rat plasma assessed as propofol release at 4 mg after 24 hrs by HPLC analysis; assay type: cell-free
[9] = Solubility of the compound in pH 7.4 PBS buffer containing 60% methanol by ultraviolet spectroscopic method; assay type: physicochemical
L929 [10] = experiment: Cytotoxicity against mouse L929 cells assessed as reduction in cell viability up to 4 mM after 24 hrs by MTT assay; assay type: cell-based; settings: l929, 24 h
A549 [11] = experiment: Cytotoxicity against human A549 cells assessed as reduction in cell viability up to 4 mM after 24 hrs by MTT assay; assay type: cell-based; settings: a549, 24 h
Rattus norvegicus [12] = experiment: Anesthetic activity in Sprague-Dawley rat assessed as onset time for loss of righting reflex at 0.073 mmol/kg, iv for 10 secs; assay type: functional
Rattus norvegicus [13] = experiment: Anesthetic activity in Sprague-Dawley rat assessed as anesthetic duration time at 0.073 mmol/kg, iv for 10 secs; assay type: functional
[14] = Prodrug activation in Sprague-Dawley rat plasma assessed as propofol release at 4 mg after 5 mins by HPLC analysis; assay type: cell-free
[15] = Prodrug activation in Sprague-Dawley rat plasma assessed as propofol release at 4 mg after 1 mins by HPLC analysis; assay type: cell-free
[16] = Prodrug activation in Sprague-Dawley rat plasma assessed as propofol release at 4 mg after 20 mins by HPLC analysis; assay type: cell-free

`COCCOCCOCCOCCOC(=O)Oc1c(C(C)C)cccc1C(C)C` gave a viability at 24 h, 50 µM [1] greater than 90%, a viability at 24 h, 50 µM [2] greater than 90% and a pEC50 (L929 [3]) of 2.86. For the same compound, the pEC50 (A549 [4]) was 2.87 and the solubility [5] was 380 µg/mL (≈ 921 µM).
With `COCCOCCOCCOCCOCCOCCOCCOCOc1c(C(C)C)cccc1C(C)C` the Activity (Rattus norvegicus [6]) was “Toxic”, the CMC [7] was 0.6 mM and the viability at 24 h, 50 µM [1] was greater than 90%. For the same compound, the viability at 24 h, 50 µM [2] was greater than 90%, the pEC50 (L929 [3]) was 3.89 and the pEC50 (A549 [4]) was 3.30. It also gave a solubility [5] of 55400 µg/mL (≈ 104000 µM).
For `COCCOCCOCCOCCOCOc1c(C(C)C)cccc1C(C)C`, the viability at 24 h, 50 µM [1] was greater than 90%, the viability at 24 h, 50 µM [2] was greater than 90% and the pEC50 (L929 [3]) was 3.05. For the same compound, the pEC50 (A549 [4]) was 2.76 and the solubility [5] was 570 µg/mL (≈ 1430 µM).
For `COCCOCCOCCOCOc1c(C(C)C)cccc1C(C)C`, the viability at 24 h, 50 µM [1] was greater than 90%, the viability at 24 h, 50 µM [2] was greater than 90% and the pEC50 (L929 [3]) was 2.93. It also gave a pEC50 (A549 [4]) of less than 2.00 and a solubility [5] of 280 µg/mL (≈ 790 µM).
In the case of `COCCOCCOCCOCCOCCOCCOCCOCCOCCOCCOCOc1c(C(C)C)cccc1C(C)C`, the Activity (Rattus norvegicus [6]) was “Toxic”, the viability at 24 h, 50 µM [1] was greater than 90% and the Drug metabolism [8] was “Metabolite_Notdetected”. The viability at 24 h, 50 µM [2] was greater than 90%, the pEC50 (L929 [3]) was 3.68 and the pEC50 (A549 [4]) was 3.21. The solubility [5] was greater than 289000 µg/mL.
In the case of `COCCOCCOC(=O)Oc1c(C(C)C)cccc1C(C)C`, the solubility [9] was 70 µg/mL (≈ 216 µM), the viability at 24 h, 50 µM [1] was greater than 90% and the viability at 24 h, 50 µM [2] was greater than 90%. The pEC50 (L929 [3]) was 2.34 and the pEC50 (A549 [4]) was less than 2.00.
For `COCCOCCOCCOCCOCCOCCOCCOCCOCCOCCO`, the Activity (L929 [10]) was “Non-Toxic” and the Activity (A549 [11]) was “Non-Toxic”.
In the case of `COCCOCCOCCOCCOCCOCCOCOc1c(C(C)C)cccc1C(C)C`, the viability at 24 h, 50 µM [1] was greater than 90%, the viability at 24 h, 50 µM [2] was greater than 90% and the pEC50 (L929 [3]) was 3.85. For the same compound, the pEC50 (A549 [4]) was 3.29 and the solubility [5] was 1250 µg/mL (≈ 2570 µM).
`COCCOCCOCCOCCOCC(=O)Oc1c(C(C)C)cccc1C(C)C` gave a viability at 24 h, 50 µM [1] greater than 90%, a viability at 24 h, 50 µM [2] greater than 90% and a pEC50 (L929 [3]) of 3.36. The pEC50 (A549 [4]) was 3.20 and the solubility [5] was 1580 µg/mL (≈ 3700 µM).
For `COCCOCCOCCOCCOCCOCCOCCOC(=O)Oc1c(C(C)C)cccc1C(C)C`, the CMC [7] was 1.5 mM, the viability at 24 h, 50 µM [1] was greater than 90% and the viability at 24 h, 50 µM [2] was greater than 90%. For the same compound, the pEC50 (L929 [3]) was 3.96, the pEC50 (A549 [4]) was 3.30 and the solubility [5] was 2730 µg/mL (≈ 5010 µM).
Work on `COCCOCCOCOc1c(C(C)C)cccc1C(C)C` yielded a solubility [9] of 200 µg/mL (≈ 644 µM), a viability at 24 h, 50 µM [1] greater than 90% and a viability at 24 h, 50 µM [2] greater than 90%. For the same compound, the pEC50 (L929 [3]) was 2.31 and the pEC50 (A549 [4]) was less than 2.00.
`COCCOCCOCCOC(=O)Oc1c(C(C)C)cccc1C(C)C` showed a viability at 24 h, 50 µM [1] greater than 90%, a viability at 24 h, 50 µM [2] greater than 90% and a pEC50 (L929 [3]) of 2.64. It also gave a pEC50 (A549 [4]) of 2.67 and a solubility [5] of 190 µg/mL (≈ 516 µM).
Compound `COCCOCCOCC(=O)Oc1c(C(C)C)cccc1C(C)C` has a solubility [9] of 420 µg/mL (≈ 1240 µM), a viability at 24 h, 50 µM [1] greater than 90% and a viability at 24 h, 50 µM [2] greater than 90%. For the same compound, the pEC50 (L929 [3]) was 2.85 and the pEC50 (A549 [4]) was 2.38.
`CC(C)c1cccc(C(C)C)c1O` [PROPOFOL] showed a Time (Rattus norvegicus [12]) of 0 s, a pEC50 (L929 [3]) of 2.33 and a Time (Rattus norvegicus [13]) of 10.3 min. For the same compound, the pEC50 (A549 [4]) was 2.02.
In the case of `COCCOCCOCCOCCOCCOCCOCCOCCOCCOCCOCC(=O)Oc1c(C(C)C)cccc1C(C)C`, the Time (Rattus norvegicus [12]) was 0 s, the Drug metabolism [14] was “Metabolite_Detected” and the viability at 24 h, 50 µM [1] was greater than 90%. For the same compound, the Drug metabolism [8] was “Metabolite_Detected”, the viability at 24 h, 50 µM [2] was greater than 90% and the pEC50 (L929 [3]) was 3.31. For the same compound, the Time (Rattus norvegicus [13]) was 8.5 min, the pEC50 (A549 [4]) was 3.22 and the solubility [5] was greater than 371000 µg/mL.
Work on `COCCOCCOCCOCCOCCOCCOCCOCC(=O)Oc1c(C(C)C)cccc1C(C)C` yielded a Time (Rattus norvegicus [12]) of 0 s, a CMC [7] of 1.3 mM and a viability at 24 h, 50 µM [1] greater than 90%. For the same compound, the viability at 24 h, 50 µM [2] was greater than 90%, the pEC50 (L929 [3]) was 3.92 and the Drug metabolism [15] was “Metabolite_Detected”. It also gave a Time (Rattus norvegicus [13]) of 10.5 min, a pEC50 (A549 [4]) of 3.28 and a solubility [5] greater than 216000 µg/mL.
With `COCCOCCOCCOCC(=O)Oc1c(C(C)C)cccc1C(C)C` the viability at 24 h, 50 µM [1] was greater than 90%, the viability at 24 h, 50 µM [2] was greater than 90% and the pEC50 (L929 [3]) was 3.19. It also gave a pEC50 (A549 [4]) of 3.13 and a solubility [5] of 990 µg/mL (≈ 2590 µM).
With `COCCOCCOCCO` the Activity (L929 [10]) was “Non-Toxic” and the Activity (A549 [11]) was “Non-Toxic”.
In the case of `COCCOCCOCCOCCOCCOCCOCC(=O)Oc1c(C(C)C)cccc1C(C)C`, the viability at 24 h, 50 µM [1] was greater than 90%, the viability at 24 h, 50 µM [2] was greater than 90% and the pEC50 (L929 [3]) was 3.96. It also gave a pEC50 (A549 [4]) of 3.28 and a solubility [5] of 2020 µg/mL (≈ 3920 µM).
In the case of `COCCOCCOCCOCCOCCOCCOC(=O)Oc1c(C(C)C)cccc1C(C)C`, the viability at 24 h, 50 µM [1] was greater than 90%, the viability at 24 h, 50 µM [2] was greater than 90% and the pEC50 (L929 [3]) was 3.29. For the same compound, the pEC50 (A549 [4]) was 3.14 and the solubility [5] was 830 µg/mL (≈ 1660 µM).
Compound `COCCOCCOCCOCCOCCOCCOCCOCCOCCOCCOC(=O)Oc1c(C(C)C)cccc1C(C)C` has a Time (Rattus norvegicus [12]) of 0 s, a viability at 24 h, 50 µM [1] greater than 90% and a viability at 24 h, 50 µM [2] greater than 90%. For the same compound, the pEC50 (L929 [3]) was 3.38, the Drug metabolism [16] was “Metabolite_Detected” and the Time (Rattus norvegicus [13]) was 5.6 min. It also gave a pEC50 (A549 [4]) of 3.40 and a solubility [5] greater than 315000 µg/mL.
